For 21 compounds, fold induction results are on record in US10766869B2, “Triazoles for the treatment of demyelinating dieases” (Vertex Pharmaceuticals Incorporated, priority 2015, dated 2020).

The test has as its system primary rat mixed cortical cells. Kind of test: In vitro myelination assay (MBP positive myelin strands, fold myelin pixels above background). In kind it is cell-based. The note with it: Rattus norvegicus; for fold induction at 1 µM: 1.0 μM compound; for fold induction at 10 µM: 10.0 μM compound. Put shortly:
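Fourteen-day treatment of primary P1 rat mixed cortical cultures, re-dosed at days 6 and 10, at 1.0 μM and 10.0 μM. MBP immunofluorescence was imaged at 10× and myelin strands quantified by software, normalised to untreated wells as fold above background.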

The mark [1] stands for this setting: relative to baseline of no added compound, read-out: Fold myelin pixels above background.
[2] abbreviates: relative to baseline of no added compound, read-out: Fold myelin pixels above background, 1.0 μM.
The mark [3] stands for this setting: relative to baseline of no added compound, read-out: Fold myelin pixels above background, 10.0 μM.
The mark [4] stands for this setting: read-out: Fold myelin pixels above background relative to baseline of no added compound.

Structures are written as SMILES. Like-named read-outs stand apart in the source and are kept apart here.

For the compound `Cc1cc(Nc2ncn(-c3cc(F)cc(F)c3)n2)cc(OC2CCCOC2)c1` (centres unmarked) [Compound 635, 1-(3,5-difluorophenyl)-N-(3-methyl-5-tetrahydropyran-3-yloxy-phenyl)-1,2,4-triazol-3-amine], under setting [1], the fold induction at 1 µM lay within 10 to 100 and the fold induction at 10 µM is 1 to 10.

As to `Cc1cc(Nc2ncn(-c3cccnc3)n2)cc(N2CCN(C)CC2)c1` [Compound 297, N-[3-methyl-5-(4-methylpiperazin-1-yl)phenyl]-1-(3-pyridyl)-1,2,4-triazol-3-amine], the fold induction at 1 µM under setting [2] fell in the range of 10 to 100. Also, under setting [3], the fold induction at 10 µM was 10 to 100. For the compound `Cc1cc(Nc2ncn(-c3cc(F)cc(F)c3)n2)cc(OCC2CCOC2)c1` (centres unmarked) [Compound 648, 1-(3,5-difluorophenyl)-N-[3-methyl-5-(tetrahydrofuran-3-ylmethoxy)phenyl]-1,2,4-triazol-3-amine], under setting [1], the fold induction at 1 µM was 10 to 100 and the fold induction at 10 µM is 10 to 100.

Regarding `CCN(C)Cc1cc(F)cc(-n2cnc(Nc3cc(C)cc(N4CCN(C)CC4)c3)n2)c1` [Compound 390, 1-[3-[[ethyl(methyl)amino]methyl]-5-fluoro-phenyl]-N-[3-methyl-5-(4-methylpiperazin-1-yl)phenyl]-1,2,4-triazol-3-amine], under setting [1], the fold induction at 1 µM was 10 to 100 and the fold induction at 10 µM was in the range of 10 to 100.

For `Cc1cc(Nc2ncn(-c3cc(F)cc(F)c3)n2)cc(N2CCN(CCCN(C)C)CC2)c1` [Compound 747, 1-(3,5-difluorophenyl)-N-[3-[4-[3-(dimethylamino)propyl]piperazin-1-yl]-5-methyl-phenyl]-1,2,4-triazol-3-amine], under setting [1], the fold induction at 1 µM was no more than 1 and the fold induction at 10 µM was no more than 1. With `CN1CCN(c2cc(Nc3ncn(-c4ccc(F)c(F)c4)n3)cc(Cl)n2)CC1` [Compound 477, 2-chloro-N-[1-(3,4-difluorophenyl)-1,2,4-triazol-3-yl]-6-(4-methylpiperazin-1-yl)pyridin-4-amine], under setting [1], the fold induction at 1 µM was 10 to 100 and the fold induction at 10 µM is no more than 1. Take `Cc1cc(Nc2ncn(-c3ccnc(N4CCCCCC4)c3)n2)cc(N2CCN(C)CC2)c1` [Compound 495, 1-[2-(azepan-1-yl)-4-pyridyl]-N-[3-methyl-5-(4-methylpiperazin-1-yl)phenyl]-1,2,4-triazol-3-amine]: the fold induction at 10 µM under setting [1] is no more than 1. Take `Cc1cc(N2CC(N3CCOCC3)C2)cc(Nc2ncn(-c3cc(F)cc(F)c3)n2)n1` [Compound 616, N-[1-(3,5-difluorophenyl)-1,2,4-triazol-3-yl]-6-methyl-4-(3-morpholinoazetidin-1-yl)pyridin-2-amine]: under setting [1], the fold induction at 1 µM was in the range of 1 to 10 and the fold induction at 10 µM is no more than 1. For `N#Cc1cc(Nc2ncn(-c3cc(F)cc(F)c3)n2)cc(N2CCN(C3COC3)CC2)c1` [Compound 678, 3-[[1-(3,5-difluorophenyl)-1,2,4-triazol-3-yl]amino]-5-[4-(oxetan-3-yl)piperazin-1-yl]benzonitrile], under setting [1], the fold induction at 1 µM was 10 to 100 and the fold induction at 10 µM fell in the range of 1 to 10. In the case of `Fc1cc(F)cc(-n2cnc(Nc3cc(C(F)F)cc(N4CC(N5CCOCC5)C4)n3)n2)c1` [Compound 732, 4-(difluoromethyl)-N-[1-(3,5-difluorophenyl)-1,2,4-triazol-3-yl]-6-(3-morpholinoazetidin-1-yl)pyridin-2-amine], under setting [1], the fold induction at 1 µM was in the range of 1 to 10 and the fold induction at 10 µM is 1 to 10. Take `Cc1cc(Nc2ncn(-c3cc(F)cc(F)c3)n2)cc(C2(O)CCN(C)C2)c1` (centres unmarked) [Compound 242, 3-[3-[[1-(3,5-difluorophenyl)-1,2,4-triazol-3-yl]amino]-5-methyl-phenyl]-1-methyl-pyrrolidin-3-ol]: under setting [2], the fold induction at 1 µM lay within 10 to 100. In addition, the fold induction at 10 µM under setting [3] is no more than 1. On the same counts, the results for `Fc1cc(F)cc(-n2cnc(Nc3cc(Cl)cc(N4CCN(C5COC5)CC4)c3)n2)c1` [Compound 5, N-[3-chloro-5-[4-(oxetan-3-yl)piperazin-1-yl]phenyl]-1-(3,5-difluorophenyl)-1,2,4-triazol-3-amine] are 1000 to 10000 and no more than 1. On the same counts, the results for `Cc1cc(Nc2ncn(-c3ccccc3)n2)cc(N2CCN(C3CCCC3)CC2)c1` [Compound 87, N-[3-(4-cyclopentylpiperazin-1-yl)-5-methyl-phenyl]-1-phenyl-1,2,4-triazol-3-amine] are 100 to 1000 and 100 to 1000. The corresponding values for `Cc1cc(Nc2ncn(-c3ccccc3)n2)cc(C2CCN(C3CC3)CC2)c1` [Compound 120, N-[3-(1-cyclopropyl-4-piperidyl)-5-methyl-phenyl]-1-phenyl-1,2,4-triazol-3-amine] are 1000 to 10000 and no more than 1.

For the compound `FC(F)c1cccc(-n2cnc(Nc3cc(C(F)(F)F)cc(N4CC(N5CCOCC5)C4)n3)n2)c1` [Compound 636, N-[1-[3-(difluoromethyl)phenyl]-1,2,4-triazol-3-yl]-6-(3-morpholinoazetidin-1-yl)-4-(trifluoromethyl)pyridin-2-amine], under setting [1], the fold induction at 1 µM fell in the range of 1 to 10 and the fold induction at 10 µM was 1 to 10. Regarding `Cc1cc(Nc2ncn(-c3cnccn3)n2)cc(C2(C)CNC(=O)O2)c1` (centres unmarked) [Compound 741, 5-methyl-5-[3-methyl-5-[(1-pyrazin-2-yl-1,2,4-triazol-3-yl)amino]phenyl]oxazolidin-2-one], under setting [1], the fold induction at 1 µM was in the range of 10 to 100 and the fold induction at 10 µM lay in the range of 1 to 10.

On to `Cc1cc(Nc2ncn(-c3cc(F)cc(F)c3)n2)cc(N2CCN([C@@H]3CCOC3)CC2)c1` [Compound 531, 1-(3,5-difluorophenyl)-N-[3-methyl-5-[4-[(3R)-tetrahydrofuran-3-yl]piperazin-1-yl]phenyl]-1,2,4-triazol-3-amine], for which, under setting [1], the fold induction at 1 µM fell in the range of 100 to 1000 and the fold induction at 10 µM is 100 to 1000. For the compound `[2H]C1(N2CCN(c3cc(C)cc(Nc4ncn(-c5cc(F)cc(F)c5)n4)c3)CC2)COC1` [Compound 1110, N-[3-[4-(3-deuteriooxetan-3-yl)piperazin-1-yl]-5-methyl-phenyl]-1-(3,5-difluorophenyl)-1,2,4-triazol-3-amine], under setting [4], the fold induction at 1 µM lay in the range of 1000 to 10000 and the fold induction at 10 µM was 1 to 10. Consider `Cc1cc(Nc2ncn(-c3ccc(F)c(F)c3)n2)c(F)c(OC2CCOC2)c1` (single isomer, unassigned) [Compound 1009, 1-(3,4-difluorophenyl)-N-(2-fluoro-5-methyl-3-tetrahydrofuran-3-yloxy-phenyl)-1,2,4-triazol-3-amine], for which, under setting [4], the fold induction at 1 µM is 10 to 100 and the fold induction at 10 µM fell in the range of 1 to 10. In the case of `Clc1cc(Nc2ncn(-c3ccccn3)n2)cc(N2CC(N3CCOCC3)C2)c1` [Compound 785, N-[3-chloro-5-(3-morpholinoazetidin-1-yl)phenyl]-1-(2-pyridyl)-1,2,4-triazol-3-amine], under setting [1], the fold induction at 1 µM lay in the range of 10 to 100 and the fold induction at 10 µM fell in the range of 100 to 1000. On the same counts, the results for `Cc1cc(Nc2ncn(-c3cc(F)cc(F)c3)n2)nc(C2CCNCC2)c1` [Compound 744, N-[1-(3,5-difluorophenyl)-1,2,4-triazol-3-yl]-4-methyl-6-(4-piperidyl)pyridin-2-amine] are 1 to 10 and no more than 1.
